# Measurements published in ChEMBL document CHEMBL1201862, “PubChem BioAssay data set” (2004).
#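 These data come from cells grown in 96-well plates and exposed to compound for 48 hours at five concentrations. GI50 marks 50% less growth.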 Calls of active or inactive are those of the source. Rule as the data show it: active = GI50 up to about 1.1 µM and inactive = higher.
# Legend:
# Assay in all cases: NCI tumour cell line growth inhibition, 48 h
# ACHN = tested on: ACHN
# CCRF-CEM = tested on: CCRF-CEM
# HCT-116 = tested on: HCT-116
# HL-60 = tested on: HL-60
# K562 = tested on: K562
# MDA-N = tested on: MDA-N
# NCI-H460 = tested on: NCI-H460
# SF-295 = tested on: SF-295
# SF-539 = tested on: SF-539
# TK-10 = tested on: TK-10
# U-251 = tested on: U-251
# UACC-257 = tested on: UACC-257
# IGROV-1 = tested on: IGROV-1
# NCI-H522 = tested on: NCI-H522
# SW-620 = tested on: SW-620
# UACC-62 = tested on: UACC-62
# Hs-578T = tested on: Hs-578T
SMILES,GI50 (ACHN),GI50 (CCRF-CEM),GI50 (HCT-116),GI50 (HL-60),GI50 (K562),GI50 (MDA-N),GI50 (NCI-H460),GI50 (SF-295),GI50 (SF-539),GI50 (TK-10),GI50 (U-251),GI50 (UACC-257),GI50 (IGROV-1),GI50 (NCI-H522),GI50 (SW-620),GI50 (UACC-62),GI50 (Hs-578T)
C=C1CC(C)(c2ccc(Nc3nc4ccccc4c4occc34)cc2)OC1=O (configuration not stated),4.26 µM (inactive),1.12 µM (active),1.34 µM (inactive),2.07 µM (inactive),4.71 µM (inactive),3.29 µM (inactive),14.7 µM (inactive),12.8 µM (inactive),2 µM (inactive),4.86 µM (inactive),5.33 µM (inactive),0.0186 µM (active),–,–,–,–,–
CSc1n[n+](C)cc(N)c1N,> 100 µM (inactive),> 100 µM (inactive),> 100 µM (inactive),51.9 µM (inactive),39 µM (inactive),> 100 µM (inactive),–,> 100 µM (inactive),> 100 µM (inactive),> 100 µM (inactive),> 100 µM (inactive),52 µM (inactive),> 100 µM (inactive),> 100 µM (inactive),> 100 µM (inactive),> 100 µM (inactive),–
Cc1ccc(Nc2nc(=S)[nH]c3[nH]ncc23)cc1,48.4 µM (inactive),1.39 µM (inactive),91.2 µM (inactive),48.8 µM (inactive),49 µM (inactive),–,64.6 µM (inactive),71.3 µM (inactive),65.8 µM (inactive),81.1 µM (inactive),64.7 µM (inactive),84.5 µM (inactive),30.1 µM (inactive),32.2 µM (inactive),> 100 µM (inactive),37.7 µM (inactive),77.1 µM (inactive)
Cc1ccc(Cc2nn(C)c(=O)n2-n2cccc2)cc1,> 100 µM (inactive),> 100 µM (inactive),> 100 µM (inactive),–,> 100 µM (inactive),> 100 µM (inactive),> 100 µM (inactive),> 100 µM (inactive),–,> 100 µM (inactive),> 100 µM (inactive),56.8 µM (inactive),> 100 µM (inactive),> 100 µM (inactive),> 100 µM (inactive),> 100 µM (inactive),> 100 µM (inactive)
O=C(c1ccccc1)c1c(CC(O)c2cccnc2)n(C(=O)c2ccccc2)c2ccccc12 (configuration not stated),22.9 µM (inactive),22.5 µM (inactive),15.9 µM (inactive),21.5 µM (inactive),21.6 µM (inactive),–,16.9 µM (inactive),17.4 µM (inactive),16.6 µM (inactive),26.9 µM (inactive),17 µM (inactive),22.4 µM (inactive),19.1 µM (inactive),13.1 µM (inactive),26.6 µM (inactive),16.5 µM (inactive),–
CO/C(C)=N/CCC1=CCCCC1,> 100 µM (inactive),–,> 100 µM (inactive),–,93.1 µM (inactive),> 100 µM (inactive),> 100 µM (inactive),55.5 µM (inactive),–,> 100 µM (inactive),> 100 µM (inactive),> 100 µM (inactive),> 100 µM (inactive),> 100 µM (inactive),> 100 µM (inactive),> 100 µM (inactive),> 100 µM (inactive)
c1ccc2c(c1)ncn2CCn1ccnc1,> 100 µM (inactive),> 100 µM (inactive),–,> 100 µM (inactive),> 100 µM (inactive),–,> 100 µM (inactive),> 100 µM (inactive),> 100 µM (inactive),> 100 µM (inactive),> 100 µM (inactive),–,> 100 µM (inactive),> 100 µM (inactive),> 100 µM (inactive),> 100 µM (inactive),> 100 µM (inactive)
Cc1ccc(/N=N/c2c(O)ccc3cc(S(=O)(=O)O)ccc23)cc1,> 100 µM (inactive),> 100 µM (inactive),24.2 µM (inactive),–,> 100 µM (inactive),> 100 µM (inactive),–,> 100 µM (inactive),–,> 100 µM (inactive),> 100 µM (inactive),> 100 µM (inactive),64.3 µM (inactive),> 100 µM (inactive),> 100 µM (inactive),> 100 µM (inactive),> 100 µM (inactive)
CC(=O)C1(c2ccccc2)CCCN(C)CC1 (configuration not stated),–,> 100 µM (inactive),> 100 µM (inactive),–,–,> 10 µM (inactive),> 100 µM (inactive),> 100 µM (inactive),–,> 100 µM (inactive),> 100 µM (inactive),> 100 µM (inactive),> 100 µM (inactive),–,> 100 µM (inactive),> 100 µM (inactive),> 100 µM (inactive)
